# Laboratory results: patent US20240247080A1, “GLP1/GIP/NPY2 RECEPTOR TRIPLE AGONISTS” (Boehringer Ingelheim International GmbH, priority 2022, published 2024)
# pEC50: −log10 of the molar value. Read-outs that look alike come from different tables or passages of the source.
# How the values were obtained:
# Format in all cases: cell-based
# Details in all cases: CreLuc reporter gene assay
# hGIPR = target: T1, hGIPR (Homo sapiens, UniProt P48546); experiment: hGIPR CreLuc reporter gene assay in 0.5% and 100% plasma
# T1 construct: expressed in transfected cells; host or cells: CHO cells carrying a CRE-luciferase reporter gene
# T1 sequence (P48546 22-466): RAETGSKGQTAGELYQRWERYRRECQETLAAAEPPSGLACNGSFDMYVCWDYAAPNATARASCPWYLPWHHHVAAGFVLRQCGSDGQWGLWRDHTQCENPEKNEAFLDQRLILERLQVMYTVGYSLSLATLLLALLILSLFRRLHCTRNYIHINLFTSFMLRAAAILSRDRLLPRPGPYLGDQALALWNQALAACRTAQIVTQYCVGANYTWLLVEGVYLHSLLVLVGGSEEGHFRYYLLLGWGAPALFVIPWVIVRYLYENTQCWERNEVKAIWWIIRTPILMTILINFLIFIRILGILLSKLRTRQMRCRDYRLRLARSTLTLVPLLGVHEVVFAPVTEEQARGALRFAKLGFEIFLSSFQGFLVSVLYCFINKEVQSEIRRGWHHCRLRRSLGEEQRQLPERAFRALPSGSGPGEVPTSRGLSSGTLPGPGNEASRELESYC
# Summary of the method: (§1)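 Agonist EC50s came from 8-concentration curves over four decades, fitted by non-linear variable-slope regression of CRE-driven luciferase luminescence. Cells were exposed 4 h at 37 °C, in buffer with 0.5% human plasma or in 100% plasma; GIPR was expressed in CHO cells, GLP-1R and NPY2R in HEK cells.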
# hGLP1R = target: T2, hGLP1R (Homo sapiens, UniProt P43220); experiment: hGLP1R CreLuc reporter gene assay in 0.5% and 100% plasma
# T2 construct: expressed in transfected cells; host or cells: HEK-293 cells carrying a CRE-luciferase reporter gene
# Summary of the method: as §1
# hNPY2R = target: T3, hNPY2R (Homo sapiens, UniProt P49146); experiment: hNPY2R CreLuc reporter gene assay in 0.5% and 100% plasma
# T3 construct: expressed in transfected cells; host or cells: HEK-293 cells carrying a CRE-luciferase reporter gene
# T3 sequence (P49146 1-381): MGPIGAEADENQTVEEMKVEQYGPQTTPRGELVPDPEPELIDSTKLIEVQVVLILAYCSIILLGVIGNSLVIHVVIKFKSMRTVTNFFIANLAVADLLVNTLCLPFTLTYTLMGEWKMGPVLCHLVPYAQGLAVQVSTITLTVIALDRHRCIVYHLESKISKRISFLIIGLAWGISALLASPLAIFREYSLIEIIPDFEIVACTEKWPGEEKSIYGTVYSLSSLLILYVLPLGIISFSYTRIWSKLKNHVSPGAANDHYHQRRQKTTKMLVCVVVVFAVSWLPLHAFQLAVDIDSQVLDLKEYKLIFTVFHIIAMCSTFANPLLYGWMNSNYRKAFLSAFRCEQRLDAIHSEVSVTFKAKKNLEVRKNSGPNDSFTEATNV
# Summary of the method: as §1
# [1] = 0.5% human plasma, read-out: hGIPR 0.5% hP
# [2] = 100% human plasma, read-out: hGIPR 100% hP
# [3] = 0.5% human plasma, read-out: hGLP1R 0.5% hP
# [4] = 100% human plasma, read-out: hNPY2R 100% hP
# [5] = 0.5% human plasma, read-out: hNPY2R 0.5% hP
# T2 sequence (P43220 24-463): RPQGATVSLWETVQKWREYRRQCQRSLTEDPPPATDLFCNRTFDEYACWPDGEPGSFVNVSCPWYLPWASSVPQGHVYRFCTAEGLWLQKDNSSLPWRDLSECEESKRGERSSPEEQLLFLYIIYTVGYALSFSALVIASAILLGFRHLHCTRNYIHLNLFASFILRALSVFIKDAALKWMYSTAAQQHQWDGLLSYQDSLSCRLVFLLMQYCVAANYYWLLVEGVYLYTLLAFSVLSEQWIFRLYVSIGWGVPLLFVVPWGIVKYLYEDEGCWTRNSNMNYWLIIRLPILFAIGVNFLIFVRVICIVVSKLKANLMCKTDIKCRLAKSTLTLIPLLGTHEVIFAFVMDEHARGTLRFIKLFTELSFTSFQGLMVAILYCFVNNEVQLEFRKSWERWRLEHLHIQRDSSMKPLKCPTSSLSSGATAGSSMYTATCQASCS
pEC50 (hGIPR; [1]),pEC50 (hGIPR; [2]),pEC50 (hGLP1R; [3]),pEC50 (hNPY2R; [4]),"pEC50 (hGLP1R; 100% human plasma, read-out: hGLP1R 100% hP)",pEC50 (hNPY2R; [5]),Structure (SMILES)
10.10,8.82,9.66,7.10,–,–,"CC[C@H](C)[C@H](NC(=O)[C@H](CC(C)C)NC(=O)[C@H](Cc1c[nH]c2ccccc12)NC(=O)[C@H](CCC(=O)O)NC(=O)[C@@H](NC(=O)[C@H](Cc1ccccc1)NC(=O)[C@H](C)NC(=O)C(C)(C)NC(=O)[C@H](CCC(N)=O)NC(=O)[C@H](C)NC(=O)[C@H](CCC(N)=O)NC(=O)[C@H](CCCCN)NC(=O)[C@H](CCC(=O)O)NC(=O)[C@H](CC(C)C)NC(=O)C(C)(C)NC(=O)[C@@H](NC(=O)[C@H](CO)NC(=O)[C@H](Cc1ccc(O)cc1)NC(=O)[C@H](CC(=O)O)NC(=O)[C@H](CO)NC(=O)[C@@H](NC(=O)[C@H](Cc1ccccc1)NC(=O)[C@@H](NC(=O)CNC(=O)[C@H](CCC(=O)O)NC(=O)C(C)(C)NC(=O)[C@@H](N)Cc1ccc(O)cc1)[C@@H](C)O)[C@@H](C)O)[C@@H](C)CC)C(C)C)C(=O)N[C@@H](CCCCNC(=O)[C@@H](N)CCCCNC(=O)CC[C@H](NC(=O)CC[C@H](NC(=O)CC[C@H](NC(=O)CC[C@H](NC(=O)CC[C@H](NC(=O)CC[C@H](NC(=O)CCCCCCCCCCCCCCCCCCC(=O)O)C(=O)O)C(=O)O)C(=O)O)C(=O)O)C(=O)O)C(=O)O)C(=O)NCC(=O)NCC(=O)N1CCC[C@H]1C(=O)N[C@@H](CO)C(=O)N[C@@H](CCC(=O)O)C(=O)N1CCC[C@H]1C(=O)N[C@@H](CCC(=O)O)C(=O)N[C@@H](CO)C(=O)N[C@@H](CC(C)C)C(=O)N[C@@H](CCCNC(=N)N)C(=O)N[C@@H](Cc1c[nH]cn1)C(=O)N[C@@H](Cc1ccc(O)cc1)C(=O)N[C@@H](Cc1ccc(O)cc1)C(=O)N[C@@H](CC(N)=O)C(=O)N[C@@H](Cc1c[nH]c2ccccc12)C(=O)N[C@@H](CC(C)C)C(=O)N[C@H](C(=O)N[C@@H](CCCNC(=N)N)C(=O)N[C@@H](CCC(N)=O)C(=O)N[C@@H](CCCNC(=N)N)C(=O)N[C@@H](Cc1ccc(O)cc1)C(N)=O)[C@@H](C)O [Compound 122, Y-Aib-E-G-T-F-T-S-D-Y-S-I-Aib-L-E-K-Q-A-Q-Aib-A-F-V-E-W-L-I-K(1,3)-GGPSEPESLRHYYNWLTRQRY-NH2.C20DA-gGlu-gGlu-gGlu-gGlu-gGlu-gGlu-eLys(1,2)]"
10.30,9.08,10.40,–,8.80,7.88,"CC[C@H](C)[C@H](NC(=O)[C@H](CC(C)C)NC(=O)[C@H](Cc1c[nH]c2ccccc12)NC(=O)[C@H](CCC(=O)O)NC(=O)[C@@H](NC(=O)[C@H](Cc1ccccc1)NC(=O)[C@H](C)NC(=O)C(C)(C)NC(=O)[C@H](CCC(N)=O)NC(=O)[C@H](C)NC(=O)[C@H](CCC(N)=O)NC(=O)[C@H](CCCCN)NC(=O)[C@H](CCC(=O)O)NC(=O)[C@H](CC(C)C)NC(=O)C(C)(C)NC(=O)[C@@H](NC(=O)[C@H](CO)NC(=O)[C@H](Cc1ccc(O)cc1)NC(=O)[C@H](CC(=O)O)NC(=O)[C@H](CO)NC(=O)[C@@H](NC(=O)[C@H](Cc1ccccc1)NC(=O)[C@@H](NC(=O)CNC(=O)[C@H](CCC(=O)O)NC(=O)C(C)(C)NC(=O)[C@@H](N)Cc1ccc(O)cc1)[C@@H](C)O)[C@@H](C)O)[C@@H](C)CC)C(C)C)C(=O)N[C@@H](CCCCNC(=O)[C@@H](N)CCCCNC(=O)CC[C@H](NC(=O)CC[C@H](NC(=O)CC[C@H](NC(=O)CC[C@H](NC(=O)CC[C@H](NC(=O)CC[C@H](NC(=O)CCCCCCCCCCCCCCCCCCC(=O)O)C(=O)O)C(=O)O)C(=O)O)C(=O)O)C(=O)O)C(=O)O)C(=O)NCC(=O)NCC(=O)N1CCC[C@H]1C(=O)N[C@@H](CO)C(=O)N[C@@H](CO)C(=O)NCC(=O)N[C@@H](CCC(=O)O)C(=O)N[C@@H](CO)C(=O)N[C@@H](CC(C)C)C(=O)N[C@@H](CCCNC(=N)N)C(=O)N[C@@H](Cc1c[nH]cn1)C(=O)N[C@@H](Cc1ccc(O)cc1)C(=O)N[C@@H](Cc1ccc(O)cc1)C(=O)N[C@@H](CC(N)=O)C(=O)N[C@@H](Cc1c[nH]c2ccccc12)C(=O)N[C@@H](CC(C)C)C(=O)N[C@H](C(=O)N[C@@H](CCCNC(=N)N)C(=O)N[C@@H](CCC(N)=O)C(=O)N[C@@H](CCCNC(=N)N)C(=O)N[C@@H](Cc1ccc(O)cc1)C(N)=O)[C@@H](C)O [Compound 127, Y-Aib-E-G-T-F-T-S-D-Y-S-I-Aib-L-E-K-Q-A-Q-Aib-A-F-V-E-W-L-I-K(1,3)-GGPSSGESLRHYYNWLTRQRY-NH2.C20DA-gGlu-gGlu-gGlu-gGlu-gGlu-gGlu-eLys(1,2)]"
9.17,–,9.54,6.70,–,7.52,"CC[C@H](C)[C@H](NC(=O)[C@H](CC(C)C)NC(=O)[C@H](Cc1c[nH]c2ccccc12)NC(=O)[C@H](CCC(N)=O)NC(=O)[C@@H](NC(=O)[C@H](Cc1ccccc1)NC(=O)[C@H](CCC(=O)O)NC(=O)C(C)(C)NC(=O)[C@H](CCC(N)=O)NC(=O)[C@H](C)NC(=O)[C@H](CCC(N)=O)NC(=O)[C@H](CCCCN)NC(=O)[C@H](CCC(=O)O)NC(=O)[C@H](CC(C)C)NC(=O)C(C)(C)NC(=O)[C@@H](NC(=O)[C@H](CO)NC(=O)[C@H](Cc1ccc(O)cc1)NC(=O)[C@H](CC(=O)O)NC(=O)[C@H](CO)NC(=O)[C@@H](NC(=O)[C@H](Cc1ccccc1)NC(=O)[C@@H](NC(=O)CNC(=O)[C@H](CCC(=O)O)NC(=O)C(C)(C)NC(=O)[C@@H](N)Cc1ccc(O)cc1)[C@@H](C)O)[C@@H](C)O)[C@@H](C)CC)C(C)C)C(=O)N[C@@H](CCCCNC(=O)[C@H](CCC(=O)O)NC(=O)[C@H](CCC(=O)O)NC(=O)[C@H](CCC(=O)O)NC(=O)[C@H](CCC(=O)O)NC(=O)[C@H](CCC(=O)O)NC(=O)CCCCCCCCCCCCCCCCC(=O)O)C(=O)NCC(=O)NCC(=O)N1CCC[C@H]1C(=O)N[C@@H](CO)C(=O)N[C@@H](CCC(=O)O)C(=O)NCC(=O)N[C@@H](C)C(=O)N[C@@H](CO)C(=O)N[C@@H](CC(C)C)C(=O)N[C@@H](CCCNC(=N)N)C(=O)N[C@@H](Cc1c[nH]cn1)C(=O)N[C@@H](Cc1ccc(O)cc1)C(=O)N[C@@H](Cc1ccc(O)cc1)C(=O)N[C@@H](CC(N)=O)C(=O)N[C@@H](Cc1c[nH]c2ccccc12)C(=O)N[C@@H](CC(C)C)C(=O)N[C@H](C(=O)N[C@@H](CCCNC(=N)N)C(=O)N[C@@H](CCC(N)=O)C(=O)N[C@@H](CCCNC(=N)N)C(=O)N[C@@H](Cc1ccc(O)cc1)C(N)=O)[C@@H](C)O [Compound 176, Y-Aib-E-G-T-F-T-S-D-Y-S-I-Aib-L-E-K-Q-A-Q-Aib-E-F-V-Q-W-L-I-K(1,3)-GGPSEGASLRHYYNWLTRQRY-NH2.C18DA-E-E-E-E-E(1,2)]"
